Here are results for 24 compounds from patent US20260042735A1, “BENZYLTRYPTAMINE COMPOUNDS” (priority 2021, published 2026).

Like-named read-outs stand apart in the source and are kept apart here. Bounds are passed on as bounds.

For series [1], the target named is T1, human 5-HT2A receptor (Homo sapiens (Human), UniProt P28223). The series can be described thus: 5HT2A competitive binding assay (Eurofins Cerep). From the text: The compound is approximately equipotent to psilocybin based on data from the http:/PDSP.unc.edu/databases/pdsp.php.
Series [2] deals with T2, 5HT2B receptor (Homo sapiens, UniProt P41595). The series can be described thus: 5HT2B competitive binding assay.
In series [3] the target is T2, 5HT2B receptor. The series can be described thus: 5HT2B functional antagonist assay. In kind it is cell-based. As for the experimental part: Quantification of myo-Inositol-1-phosphate was performed using HTRF.
Series [4] concerns the target T2, 5HT2B receptor. The series can be described thus: 5HT2B (IP1) functional agonist assay. In kind it is cell-based.
Series [5] addresses human recombinant 5-HT1A (Homo sapiens (Human), UniProt P08908). The series can be described thus: 5HT1A competitive binding assay (Eurofins Cerep). The settings on record: for Ki: [3H]8-OHDPAT 0.5 nM, HEK-293, Cheng Prusoff, read-out: 5HT1A binding constant Ki.
For series [6], the target named is T1, human 5-HT2A receptor. The series can be described thus: 5HT2A functional assay (agonism). It counts as cell-based.
Series [7] is described as follows: Pharmacokinetics after i.v. administration in rats. It counts as in vivo. The settings on record: plasma, iv; rat, i.v. 1.0 mg/kg. As for the experimental part: (§1) The compound of Example 1 was dispersed in water containing phosphate buffered saline at a rate of 1 mg/ml and then acidified to pH 4 to create a solution. The solution was administered to each of 3 rats (ca. 300 g each) at a rate of 1.0 mg/kg (ca. dose 0.33 ml, […]) via a catheter placed in the jugular vein. Animals were observed over a period of 12 h with counting the cumulative number head-twitch actions over each 10 min up to 2 hours and then for 10 min each at 3, 3.5 and 4 hours. Blood samples (0.25 ml) were collected via the catheter using 1 ml syringes into 0.8 ml K2EDTA tubes at 0.0833, 0.25, 0.5, 0.75, 1, 2, 4, 6 hours after the dose and placed on wet ice until processing. Psychological saline (0.25 ml) was reinjected after each blood draw via the catheter to the animal to flush the catheter and replenish blood volumes. The blood samples collected were centrifuged (3200 g, 5 min, 4 C) within 5 min of collection and the plasma recovered and placed in a cryovial and frozen in liquid nitrogen and stored at −80 C thereafter until analysis. A bioanalytical method was developed to quantify the compound in plasma using a Sciex 6500 Q-trap MSMS equipped with a standard LC system and after calibration with the compound of the example.

Series [8] concerns rats. The series can be described thus: Head-twitch counting during rat i.v. PK experiment. It counts as in vivo. The settings on record: i.v. 1.0 mg/kg, duration of PK experiment. As for the experimental part: as §1
For series [9], the target named is Adrenergic Alpha 1A (Homo sapiens (Human), UniProt P35348). The series can be described thus: Functional GCPR assay, inhibition, Adrenergic Alpha 1A. In kind it is cell-based. The settings on record: read-out: IC50 (A1A) inhibition in functional GCPR assay.
Series [10] concerns the target Adrenergic Alpha 2A (Homo sapiens (Human), UniProt P08913). The series can be described thus: Functional GCPR assay, inhibition, Adrenergic Alpha 2A. In kind it is cell-based. The settings on record: read-out: IC50 (A2A) inhibition in functional GCPR assay.
For series [11], the system named is 5HT2C receptor. The settings on record: binding Ki ratio.
Series [12] deals with T3, 5HT2C receptor (Homo sapiens, UniProt P28335). The series can be described thus: biochemical.
Series [13] addresses T3, 5HT2C receptor. The settings on record: phosphoinositol hydrolysis; read-out: Agonist potency at human 5-HT2C receptor; cited from earlier work.
Where [14] appears, read: 2A Binding, Table 1, all units nM.
Where [15] appears, read: Table 1, all units nM, read-out: 2A Binding.
Setting [16] is: Table 1, all units nM, read-out: 2B Binding.
The mark [17] stands for this setting: Table 1, all units nM, read-out: 2B EC50 Functional Agonist.
Where [18] appears, read: Table 1, all units nM, read-out: 2B IC50 Functional Antagonist.
Setting [19] is: 125I-DOI 0.2 nM, CHO cells, Cheng Prusoff, read-out: 5HT2B binding constant Ki.

T2 sequence (P41595 whole entry): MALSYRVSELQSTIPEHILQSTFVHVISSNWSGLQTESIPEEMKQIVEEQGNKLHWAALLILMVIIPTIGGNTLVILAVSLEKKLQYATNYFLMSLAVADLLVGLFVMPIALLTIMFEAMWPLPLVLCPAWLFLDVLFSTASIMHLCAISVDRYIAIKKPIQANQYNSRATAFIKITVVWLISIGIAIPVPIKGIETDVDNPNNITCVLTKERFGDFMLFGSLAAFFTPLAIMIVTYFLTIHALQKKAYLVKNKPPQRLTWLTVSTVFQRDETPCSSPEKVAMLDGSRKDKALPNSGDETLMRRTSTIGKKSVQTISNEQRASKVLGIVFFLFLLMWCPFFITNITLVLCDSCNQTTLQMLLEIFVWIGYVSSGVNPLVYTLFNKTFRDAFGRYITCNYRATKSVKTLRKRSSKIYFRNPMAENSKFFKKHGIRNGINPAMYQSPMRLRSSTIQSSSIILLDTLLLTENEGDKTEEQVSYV
T3 sequence (P28335 33-458 limits assumed): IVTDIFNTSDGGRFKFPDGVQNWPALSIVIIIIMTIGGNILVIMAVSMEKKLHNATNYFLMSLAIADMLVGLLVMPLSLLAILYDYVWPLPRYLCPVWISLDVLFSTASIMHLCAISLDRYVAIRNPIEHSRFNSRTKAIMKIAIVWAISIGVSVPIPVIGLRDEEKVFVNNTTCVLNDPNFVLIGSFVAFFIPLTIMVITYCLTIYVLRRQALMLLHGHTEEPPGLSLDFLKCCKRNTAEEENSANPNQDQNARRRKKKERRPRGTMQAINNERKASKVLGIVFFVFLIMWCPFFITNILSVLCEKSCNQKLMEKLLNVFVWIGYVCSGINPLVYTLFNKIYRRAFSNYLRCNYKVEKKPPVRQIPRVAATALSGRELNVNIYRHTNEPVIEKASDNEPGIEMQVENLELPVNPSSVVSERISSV
Chain of Adrenergic Alpha 1A (P35348 whole entry): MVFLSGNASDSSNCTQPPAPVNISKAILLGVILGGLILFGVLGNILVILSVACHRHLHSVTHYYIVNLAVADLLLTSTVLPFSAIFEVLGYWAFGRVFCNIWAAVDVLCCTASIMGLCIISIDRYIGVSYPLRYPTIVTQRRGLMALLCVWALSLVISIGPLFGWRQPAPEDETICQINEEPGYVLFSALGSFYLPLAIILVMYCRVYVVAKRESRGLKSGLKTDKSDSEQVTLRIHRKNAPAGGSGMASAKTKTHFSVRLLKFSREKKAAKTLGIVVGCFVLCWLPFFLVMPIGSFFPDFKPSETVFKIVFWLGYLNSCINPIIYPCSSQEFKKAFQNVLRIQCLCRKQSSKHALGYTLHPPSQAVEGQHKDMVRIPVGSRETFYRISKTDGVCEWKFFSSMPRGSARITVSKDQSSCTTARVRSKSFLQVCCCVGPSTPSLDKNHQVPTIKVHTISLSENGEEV
Chain of Adrenergic Alpha 2A (P08913 whole entry): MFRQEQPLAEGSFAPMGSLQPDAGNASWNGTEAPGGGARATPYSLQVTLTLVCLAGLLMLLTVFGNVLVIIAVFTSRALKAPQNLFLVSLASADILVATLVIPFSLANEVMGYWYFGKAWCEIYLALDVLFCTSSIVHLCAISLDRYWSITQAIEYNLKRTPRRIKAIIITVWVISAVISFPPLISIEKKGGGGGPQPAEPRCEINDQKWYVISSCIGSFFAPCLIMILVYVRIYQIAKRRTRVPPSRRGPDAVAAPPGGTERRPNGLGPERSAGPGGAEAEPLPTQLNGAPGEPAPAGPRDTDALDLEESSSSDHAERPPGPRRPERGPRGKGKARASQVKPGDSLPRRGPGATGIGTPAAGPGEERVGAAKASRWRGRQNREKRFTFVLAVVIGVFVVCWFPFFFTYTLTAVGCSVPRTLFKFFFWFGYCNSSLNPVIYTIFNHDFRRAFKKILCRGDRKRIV

As to `COc1cccc(CN(C)CCc2c[nH]c3ccc(OC)cc23)c1` [Example 27, 2-(5-methoxy-1H-indol-3-yl)-N-(3-methoxybenzyl)-N-methylethan-1-amine], the Ki in series [1] (setting [14]) and in series [2] was 16 nM throughout.

Consider `COc1cccc(CN(C)CCc2c[nH]c3ccccc23)c1OC` [Example 15, N-(2,3-dimethoxybenzyl)-2-(H-indol-3-yl)-N-methylethan-1-amine], for which the Ki came out at 274 nM in series [1] (setting [14]) and 48 nM in [2]. Further, half-maximal inhibition in series [3] (IC50) required 1370 nM.

`C=C(C)CN(CCc1c[nH]c2ccccc12)Cc1cccc(OC)c1` [Example 20, N-(2-(1H-indol-3-yl)ethyl)-N-(3-methoxybenzyl)2-methylprop-2-en-1-amine]: the Ki in series [1] (setting [15]) was 135 nM.

As for `C/C=C\CN(CCc1c[nH]c2ccccc12)Cc1cccc(OC)c1` [Example 19, (Z)—N-(2-(1H-indol-3-yl)ethyl)-N-(3-methoxybenzyl)but-2-en-1-amine], the Ki in [1] (setting [15]) was 31 nM; in series [2] (setting [16]) it was 44 nM. The EC50 in series [4] (setting [17]) was above 10000 nM. The IC50 (in general, the concentration needed to halve the response being measured) in series [3] (setting [18]) stood at 3380 nM.

In the case of `COc1cccc(CN(CCc2c[nH]c3ccccc23)C(C)C)c1OC` [Example 16, N-(2-(1H-indol-3-yl)ethyl)-N-(2,3-dimethoxybenzyl)prop-2-an-1-amine], the results for the Ki in series [1] (setting [15]) and in series [2] (setting [16]) were 2630 nM and 313 nM, respectively. Moreover, the EC50 in [4] (setting [17]) is above 10000 nM. In series [3] (setting [18]), the IC50 was above 10000 nM.

Turning to `COc1ccc2[nH]cc(CCN(C)Cc3ccccc3OC)c2c1` [Example 1], the Ki in series [5] was 540 nM; in series [2] (setting [19]), 180 nM; in [12] it was 680 nM. Moreover, the “Selectivity for 5HT2A over 5HT1A (Ki)” value in [5] (binding Ki ratio) is recorded as “about 5 fold”. The compound also showed an EC50 in [6] (HEK-293) of 520 nM. For the same compound, the Emax in series [6] (at the highest concentrations, read-out: 5HT2A maximum efficacy) is 80%. Further, the “5HT2B functional agonist EC50 (IP1)” value in series [4] (CHO cells, HTRF, serotonin 1 uM control) is given as “could not be determined for lack of activity”. In addition, the half-maximal inhibitory concentration (IC50) in series [3] (CHO cells, background serotonin 10 uM, read-out: 5HT2B functional antagonist IC50) was below 10000 nM; in [9] it was 1800 nM; in [10], 1700 nM. In addition, the “5HT2B functional mode (antagonist)” value in series [3] (relative to serotonin) is listed as “full antagonist”. For the same compound, in series [7], the half-life – broadly, the time needed for the level to fall by half in the phase considered – came to 1.1 h. In addition, the Head twitch activity entry in series [8] is “no significant head twitch activity”. For the same compound, in series [11], the “Selectivity for 5HT2A over 5HT2C (Ki)” value was “about 6 fold”.

`CN(CCc1c[nH]c2ccccc12)Cc1cccc2c1OCO2` [Example 26]: the values for the Ki in [1] (setting [15]) and in [2] (setting [16]) were 73 nM and 60 nM, respectively. For the same compound, the 50% inhibitory concentration (IC50) in [3] (setting [18]) was 1090 nM.

Regarding `CN(CCc1c[nH]c2ccccc12)Cc1cccc(Br)c1` [Example 23, N-(3-bromobenzyl)-2-(1H-indol-3-yl)-N-methylethan-1-amine], the Ki in series [1] (setting [15]) was determined as 11 nM; in series [2] (setting [16]), 22 nM. Moreover, in series [3] (setting [18]), the IC50 was found to be 1620 nM.

For `COc1ccc(CN(C)CCc2c[nH]c3ccccc23)cc1` [Example 14, 2-(1H-indol-3-yl)-N-(4-methoxybenzyl)-N-methylethan-1-amine], the Ki in [1] (setting [15]) stood at 280 nM; in series [2] (setting [16]), 69 nM. Besides, the half-inhibitory concentration (IC50) in [3] (setting [18]) is 1670 nM.

With `COc1ccc2[nH]cc(CCN(C)Cc3c(OC)cccc3OC)c2c1` [A, reference compound], the Ki came to 1600 nM in series [1] (setting [14]) and 402 nM in series [2]. The compound further returned a half-maximal inhibitory concentration (IC50) in series [3] above 10000 nM.

In the case of `C#Cc1cccc(CN(C)CCc2c[nH]c3ccccc23)c1` [Example 25, 2-(1H-indol-3-yl)-N-(3-ethynylbenzyl)-N-methylethan-1-amine], the Ki in [1] (setting [15]) worked out at 6 nM; in series [2] (setting [16]) it was 13 nM. For the same compound, the EC50 in [4] (setting [17]) came to 163 nM. For the same compound, the half-inhibitory concentration (IC50) in series [3] (setting [18]) was 2560 nM.

As to `COc1ccc2[nH]cc(CCN(Cc3ccccc3OC)C(C)C)c2c1` [Example 12, N-(2-(5-methoxy-1H-indol-3-yl)ethyl)-N-(2-methoxybenzyl)propan-2-amine], the Ki in series [1] (setting [15]) is 277 nM; in series [2] (setting [16]), 341 nM. In series [4] (setting [17]), the EC50 is above 10000 nM.

As for `COc1ccc2[nH]cc(CCN(C)Cc3cc(OC)c(OC)c(OC)c3)c2c1` [C, reference compound], the Ki in [1] (setting [14]) was found to be 340 nM; in series [2] it was 76 nM. This compound also yielded a 50% inhibitory concentration (IC50) in series [3] of 2050 nM.

Turning to `COc1cccc(CN(C)CCc2c[nH]c3ccccc23)c1` [Example 10], the Ki in series [5] came out at 510 nM; in series [1] (125I-DOI 0.1 nM, HEK-293, Cheng Prusoff, read-out: 5HT2A binding constant Ki) it was 14 nM; in series [2] (setting [19]) it was 380 nM; in series [12], 42 nM. Besides, the half-inhibitory concentration (IC50) in series [4] (Example 10, read-out: 5HT2B functional agonist mode IC50) was 1050 nM. Besides, the “5HT2B functional agonist mode efficacy” value in series [4] (up to 30 uM) is listed as below 20%.

For `COc1cc(OC)c(CN(CCc2c[nH]c3ccc(OC)cc23)C(C)C)c(OC)c1` [B, reference compound], the Ki in [1] (setting [15]) was found to be 4600 nM; in series [2] (setting [16]), 4930 nM. Moreover, the 50% inhibitory concentration (IC50) in series [3] (setting [18]) was above 10000 nM.

Turning to `COc1ccccc1CN(C)CCc1c[nH]c2ccccc12` [Example 28, 2-(1H-indol-3-yl)-N-(2-methoxybenzyl)-N-methylethan-1-amine], the Ki in series [1] (setting [14]) was 130 nM; in series [2], 253 nM.

In the case of `CN(CCc1c[nH]c2ccccc12)Cc1ccccc1` [Example 17, N-(2-(1H-indol-3-yl)ethyl)-N-(benzyl)methan-1-amine], the Ki in series [1] (setting [15]) was 60 nM; in series [2] (setting [16]), 45 nM. In addition, in series [3] (setting [18]), the half-maximal inhibitory concentration (IC50) is above 10000 nM.

As for `C=CCN(CCc1c[nH]c2ccc(OC)cc12)Cc1ccccc1OC` [Example 13, N-(2-(5-methoxy-1H-indol-3-yl)ethyl)-N-(2-methoxybenzyl)prop-2-en-1-amine], the Ki in series [1] (setting [15]) amounted to 76 nM; in series [2] (setting [16]) it was 73 nM. For the same compound, the EC50 in series [4] (setting [17]) is above 10000 nM. In series [3] (setting [18]), the half-inhibitory concentration (IC50) is above 10000 nM.

With `CN(CCc1c[nH]c2ccccc12)Cc1cccc(CO)c1` [Example 24, N-(2-(1H-indol-3-yl)ethyl)-N-(3-hydroxymethylbenzyl)methan-1-amine], the Ki came to 59 nM in [1] (setting [15]) and 50 nM in series [2] (setting [16]). The IC50 in series [3] (setting [18]) was determined as 6990 nM.

Turning to `CCc1cccc(CN(C)CCc2c[nH]c3ccccc23)c1` [Example 21, 2-(1H-indol-3-yl)-N-(3-ethylbenzyl)-N-methylethan-1-amine], in series [1] (setting [15]), the Ki stood at 5 nM. Moreover, the IC50 in series [3] (setting [18]) stood at 687 nM.

`CCCCn1cc(CCN(C)C)c2c(O)cccc21` [Compound 6]: in series [13], the EC50 is around 600 nM.

For the compound `CN(CCc1c[nH]c2ccccc12)Cc1cccc(O)c1` [Example 22, 3-(((2-(1H-indol-3-yl)ethyl)(methyl)amino)methyl)phenol], the results for the Ki in series [1] (setting [14]) and in [2] were 35 nM and 31 nM, respectively. The IC50 in series [3] was above 10000 nM.

For `CCN(CCc1c[nH]c2ccc(OC)cc12)Cc1ccccc1OC` [Example 11, N-ethyl-2-(5-methoxy-1H-indol-3-yl)-N-(2-methoxybenzyl)ethan-1-amine], the Ki is 170 nM in series [1] (setting [14]) and 173 nM in series [2]. Further, the EC50 in series [4] is above 10000 nM.

For `C=CCN(CCc1c[nH]c2ccccc12)Cc1cccc(OC)c1` [Example 29, N-(2-(1H-indol-3-yl)ethyl)-N-(3-methoxybenzyl)prop-2-en-1-amine], the Ki came to 28 nM in series [1] (setting [15]) and 21 nM in series [2] (setting [16]).
